Structures can show the parent of a compound that is named as a salt.
Molecular target: T1, methionine aminopeptidase-2 (MetAP2) (Homo sapiens, UniProt P50579)
T1 construct: made in house; host or cells: insect cells, baculovirus system (secreted, purified from culture supernatant)
Experiment: Inhibition of MetAP2 enzyme activity (96-well, Met-Ala-Ser substrate, L-amino acid oxidase/peroxidase/ortho-dianisidine, 450 nm)
Format: biochemical
Conditions: pH 7.4, Met-Ala-Ser substrate, 20 minutes
Procedure: The ability of compounds of the present invention to inhibit methionine aminopeptidase 2 was evaluated using the following assay.
Assays for MetAP2 enzyme activity and MetAP2 inhibition were performed in 96-well microtiter plates. Compounds to be tested for MetAP2 inhibition were dissolved in dimethyl-sulfoxide at 10 mM and diluted ten-fold in assay buffer ([…], pH 7.4, 100 mM NaCl). Ten microliters of solution of each compound to be tested for inhibition were introduced into each cell of the plate, with each compound being tested in triplicate.
The absorbence at 450 nanometers was measured every 20 seconds over a period of twenty minutes using an automaic plate reader (Molecular Devices, CA, USA). The Vmax in mOD/min, calculated for each well was used to represent MetAP2 activity. The IC50 for each inhibitor was obtained by plotting the remaining MetAP2 activity versus inhibitor concentration.

[1] = IC50, recombinant MetAP2 4 μg/mL

T1 sequence (P50579 whole entry): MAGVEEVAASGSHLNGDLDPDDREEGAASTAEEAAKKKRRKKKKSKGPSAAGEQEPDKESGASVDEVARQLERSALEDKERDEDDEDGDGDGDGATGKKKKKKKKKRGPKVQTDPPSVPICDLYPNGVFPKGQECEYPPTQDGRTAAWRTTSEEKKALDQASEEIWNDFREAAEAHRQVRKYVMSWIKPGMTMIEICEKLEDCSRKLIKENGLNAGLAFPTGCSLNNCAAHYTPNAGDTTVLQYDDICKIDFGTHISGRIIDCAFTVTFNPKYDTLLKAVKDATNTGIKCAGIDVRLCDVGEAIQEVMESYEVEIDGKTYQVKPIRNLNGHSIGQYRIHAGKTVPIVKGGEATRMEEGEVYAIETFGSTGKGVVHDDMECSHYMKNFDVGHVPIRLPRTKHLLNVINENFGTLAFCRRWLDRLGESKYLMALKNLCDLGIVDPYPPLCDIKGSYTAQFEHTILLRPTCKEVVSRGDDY

Row | SMILES | IC50 [1] | IC50 (recombinant MetAP2 4 μg/mL)
1 | CSCC[C@@H](N)C(O)C(=O)NCCCCc1ccccc1 (mixture of isomers) [Example 7, (2RS,3R)-N-(4-phenylbutyl)-3-amino-2-hydroxy-5-(methylthio)pentanamide hydrochloride] | 2000 nM | –
2 | COc1ccc(CCNC(=O)C(O)[C@H](N)CCSC)cc1 (mixture of isomers) [Example 8, (2RS,3R) N-(2-(4-methoxyphenyl)ethyl)-3-amino-2-hydroxy-5-(methylthio)pentanamide hydrochloride] | 2300 nM | –
3 | CSCC[C@@H](N)C(O)C(=O)NCCc1ccc(Oc2ccccc2)cc1 (mixture of isomers) [Example 11, (2RS,3R)-N-(2-(4-phenoxyphenyl)ethyl)-3-amino-2-hydroxy-5-(methylthio)pentanamide hydrochloride] | 2600 nM | –
4 | CCOC(=O)CCCNC(=O)C(O)[C@H](N)CCSCC (mixture of isomers) [Example 16, (2RS,3R)-N-(3-(carboethoxy)propyl)-3-amino-2-hydroxy-5-(ethylthio)pentanamide hydrochloride] | 780 nM | –
5 | CSCC[C@@H](N)C(O)C(=O)O (mixture of isomers) [Example 18, (2RS,3R)-3-amino-2-hydroxy-5-(methylthio)pentanoic acid] | 150 nM | –
6 | CSCC[C@@H](N)C(O)C(=O)NCCc1ccncc1 (mixture of isomers) [Example 19, (2RS,3R)-N-(2-(4-pyridyl)ethyl)-3-amino-2-hydroxy-5-(methylthio)pentanamide] | 1600 nM | –
7 | CCOC(=O)CCNC(=O)C(O)[C@H](N)Cc1ccccc1 (mixture of isomers) [Example 20, (2RS,3R)-N-(2-(carboethoxy)ethyl)-3-amino-2-hydroxy-4-phenyl-butanamide hydrochloride] | 5800 nM | –
8 | CCOC(=O)CCCNC(=O)C(O)[C@H](N)Cc1ccccc1 (mixture of isomers) [Example 21, (2RS,3R)-N-(3-(carboethoxy)propyl)-3-amino-2-hydroxy-4-phenyl-butanamide hydrochloride] | 14000 nM | –
9 | N[C@H](Cc1ccccc1)C(O)C(=O)NCCCCc1ccccc1 (mixture of isomers) [Example 22, (2RS,3R)-N-(4-phenylbutyl)-3-amino-2-hydroxy-4-phenyl-butanamide hydrochloride] | 3400 nM | –
10 | CCOC(=O)CCCNC(=O)C(O)[C@H](N)CC1CCCCC1 (mixture of isomers) [Example 25, (2RS,3R)-N-(3-(carboethoxy)propyl)-3-amino-2-hydroxy-4-cyclohexyl-butanamide hydrochloride] | – | 1900 nM
11 | CSCC[C@@H](N)C(O)C(=O)NCCc1cccnc1 (mixture of isomers) [Example 32, (2RS,3R)-N-(2-(3-pyridyl)ethyl)-3-amino-2-hydroxy-5-(methylthio)pentanamide] | 1400 nM | –
12 | N[C@H](CC1CCCCC1)C(O)C(=O)NCCCCNS(=O)(=O)c1cccc(C(F)(F)F)c1 (mixture of isomers) [Example 84, (2RS,3R)-3-amino-4-cyclohexyl-2-hydroxy-N-(4-(((3-(trifluoromethyl)phenyl)sulfonyl)amino)butyl)butanamide hydrochloride] | 3300 nM | –
13 | COc1ccc(S(=O)(=O)NCCCCNC(=O)C(O)[C@H](N)CC2CCCCC2)cc1OC (mixture of isomers) [Example 85, (2RS,3R)-3-amino-4-cyclohexyl-N-(4-(((3,4-dimethoxyphenyl)sulfonyl)amino)butyl)-2-hydroxybutanamide hydrochloride] | 3200 nM | –
14 | N[C@H](CC1CCCCC1)C(O)C(=O)NCCCCNS(=O)(=O)c1ccc2ccccc2c1 (mixture of isomers) [Example 87, (2RS,3R)-3-amino-4-cyclohexyl-2-hydroxy-N-(4-((2-naphthylsulfonyl)amino)butyl)butanamide hydrochloride] | 2700 nM | –
15 | N[C@H](CC1CCCCC1)C(O)C(=O)NCc1ccco1 (mixture of isomers) [Example 100, (2RS,3R)-3-Amino-4-cyclohexyl-N-(2-furylmethyl)-2-hydroxybutanamide Hydrochloride] | 5900 nM | –
16 | N[C@H](CC1CCCCC1)C(O)C(=O)NCCCN1CCCC1=O (mixture of isomers) [Example 102, (2RS,3R)-3-Amino-4-cyclohexyl-2-hydroxy-N-(3-(2-oxo-1-pyrrolidinyl)propyl)butanamide Hydrochloride] | 13000 nM | –
17 | N[C@H](CC1CCCCC1)C(O)C(=O)Nc1ccccc1 (mixture of isomers) [Example 107, (2RS,3R)-3-Amino-4-cyclohexyl-2-hydroxy-N-phenylbutanamide Hydrochloride] | 1200 nM | –
18 | N[C@H](CC1CCCCC1)C(O)C(=O)NCCc1ccccc1Cl (mixture of isomers) [Example 108, (2RS,3R)-3-Amino-N-(2-chlorophenethyl)-4-cyclohexyl-2-hydroxybutanamide Hydrochloride] | 630 nM | –
19 | N[C@H](CC1CCCCC1)C(O)C(=O)NCCCc1ccccc1 (mixture of isomers) [Example 109, (2RS,3R)-3-Amino-4-cyclohexyl-2-hydroxy-N-(3-phenylpropyl)butanamide Hydrochloride] | 1700 nM | –
20 | N[C@H](CC1CCCCC1)C(O)C(=O)NC1CCCc2ccccc21 (mixture of isomers) [Example 110, (2RS,3R)-3-Amino-4-cyclohexyl-2-hydroxy-N-(1,2,3,4-tetrahydro-1-naphthalenyl)butanamide Hydrochloride] | – | 1000 nM
21 | CC(C)(C)C1CCC(NC(=O)C(O)[C@H](N)CC2CCCCC2)CC1 (mixture of isomers) [Example 111, (2RS,3R)-3-Amino-N-(4-(tert-butyl)cyclohexyl)-4-cyclohexyl-2-hydroxybutanamide Hydrochloride] | 8200 nM | –
22 | N[C@H](CC1CCCCC1)C(O)C(=O)Nc1cc(Cl)cc(Cl)c1 (mixture of isomers) [Example 112, (2RS,3R)-3-Amino-4-cyclohexyl-N-(3,5-dichlorophenyl)-2-hydroxybutanamide Hydrochloride] | 1500 nM | –
23 | CC(C)(C)OC(=O)CNC(=O)C(O)[C@H](N)CC1CCCCC1 (mixture of isomers) [Example 126, tert-butyl (2RS,3R)-2-((3-amino-4-cyclohexyl-2-hydroxybutanoyl)amino)acetate hydrochloride] | 13000 nM | –
24 | COC(=O)C(Cc1ccccc1)NC(=O)C(O)[C@H](N)CC1CCCCC1 (mixture of isomers) [Example 127, methyl (2RS,3R)-2-((3-amino-4-cyclohexyl-2-hydroxybutanoyl)amino)-3-phenylpropanoate hydrochloride] | 28000 nM | –
25 | C[C@H](NC(=O)C(O)[C@H](N)CC1CCCCC1)c1cccc2ccccc12 (mixture of isomers) [Example 133, (2RS,3R)-3-amino-4-cyclohexyl-2-hydroxy-N-((1S)-1-(1-naphthyl)ethyl)butanamide hydrochloride] | 270 nM | –
26 | C[C@@H](NC(=O)C(O)[C@H](N)CC1CCCCC1)c1cccc2ccccc12 (mixture of isomers) [Example 134, (2RS,3R)-3-amino-4-cyclohexyl-2-hydroxy-N-((1R)-1-(1-naphthyl)ethyl)butanamide hydrochloride] | 3100 nM | –
27 | N[C@H](CC1CCCCC1)C(O)C(=O)NC(CO)CO (mixture of isomers) [Example 136, (2RS,3R)-3-amino-4-cyclohexyl-2-hydroxy-N-(2-hydroxy-1-(hydroxymethyl)ethyl)butanamide trifluoroacetate] | 1800 nM | –
